PubChem BioAssay AID328 (DTP/NCI, 2004)
“And” between values parts separate entries of the source, which are not always exact repeats. Equal entries are not always repeated. Inconclusive results and toxic doses are left out.

Test system: BDF1 mice, P388 leukemia ip, median survival T/C
Test: NCI In Vivo Anticancer Drug Screen. Data for tumor model P388 Leukemia (intraperitoneal) in B6D2F1 (BDF1) mice
Conditions: endpoint: median survival time, higher = longer survival
Method in brief: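 In tumour-bearing mice, survival after compound treatment is set against the vehicle group and given as a quotient.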

[1] = dose: 100.0 mg/kg/injection, schedule: Q01DX009 (ip), vehicle: Klucel (hydroxypropylcellulose) (HPC)
[2] = dose: 100.0 mg/kg/injection, schedule: Q04DX003 (ip), vehicle: Klucel (hydroxypropylcellulose) (HPC)
[3] = dose: 200.0 mg/kg/injection, schedule: Q01DX009 (ip), vehicle: Klucel (hydroxypropylcellulose) (HPC)
[4] = dose: 200.0 mg/kg/injection, schedule: Q04DX003 (ip), vehicle: Klucel (hydroxypropylcellulose) (HPC)
[5] = dose: 400.0 mg/kg/injection, schedule: Q04DX003 (ip), vehicle: Klucel (hydroxypropylcellulose) (HPC)
[6] = dose: 100.0 mg/kg/injection, schedule: Q01DX009 (ip), vehicle: saline with Tween-80
[7] = dose: 200.0 mg/kg/injection, schedule: Q01DX009 (ip), vehicle: saline with Tween-80
[8] = dose: 50.0 mg/kg/injection, schedule: Q01DX009 (ip), vehicle: saline with Tween-80

Cc1ccc2c(c1)=N/C(=N\c1nc(O)c(O)[nH]1)N=2
T/C (dose: 60.0 mg/kg/injection, schedule: Q01DX009 (ip), vehicle: Klucel (hydroxypropylcellulose) (HPC)): 98 % of control
T/C (dose: 66.0 mg/kg/injection, schedule: Q01DX009 (ip), vehicle: Klucel (hydroxypropylcellulose) (HPC)): 106 % of control
T/C [1]: 103 % of control and 118 % of control
T/C [2]: 104 % of control
T/C (dose: 140.0 mg/kg/injection, schedule: Q01DX009 (ip), vehicle: Klucel (hydroxypropylcellulose) (HPC)): 97 % of control
T/C (dose: 150.0 mg/kg/injection, schedule: Q01DX009 (ip), vehicle: Klucel (hydroxypropylcellulose) (HPC)): 168 % of control
T/C [3]: 116 % of control
T/C [4]: 100 % of control
T/C (dose: 400.0 mg/kg/injection, schedule: Q01DX009 (ip), vehicle: Klucel (hydroxypropylcellulose) (HPC)): 111 % of control
T/C [5]: 95 % of control

CC(=O)O[C@H]1CC[C@H]2[C@@H]3CC[C@H]4CC=C(C#N)C[C@]4(C)[C@H]3CC[C@]12C
T/C (dose: 0.75 mg/kg/injection, schedule: Q01DX009 (ip), vehicle: Klucel (hydroxypropylcellulose) (HPC)): 95 % of control
T/C (dose: 1.5 mg/kg/injection, schedule: Q01DX009 (ip), vehicle: Klucel (hydroxypropylcellulose) (HPC)): 92 % of control and 100 % of control
T/C (dose: 3.0 mg/kg/injection, schedule: Q01DX009 (ip), vehicle: Klucel (hydroxypropylcellulose) (HPC)): 104 % of control
T/C (dose: 6.0 mg/kg/injection, schedule: Q01DX009 (ip), vehicle: Klucel (hydroxypropylcellulose) (HPC)): 103 % of control
T/C (dose: 25.0 mg/kg/injection, schedule: Q01DX009 (ip), vehicle: Klucel (hydroxypropylcellulose) (HPC)): 88 % of control
T/C (dose: 50.0 mg/kg/injection, schedule: Q01DX009 (ip), vehicle: Klucel (hydroxypropylcellulose) (HPC)): 100 % of control
T/C [1]: 95 % of control
T/C [2]: 109 % of control
T/C [3]: 100 % of control
T/C [4]: 109 % of control
T/C [5]: 86 % of control

CCN1CCC2(CC1)COCc1ccccc12
T/C (dose: 50.0 mg/kg/injection, schedule: Q04DX002 (ip), vehicle: saline with Tween-80): 107 % of control
T/C (dose: 100.0 mg/kg/injection, schedule: Q04DX002 (ip), vehicle: saline with Tween-80): 91 % of control

O=C1c2cccnc2C(=O)N1Cc1ccccc1
T/C (dose: 9.38 mg/kg/injection, schedule: Q01DX009 (ip), vehicle: saline with Tween-80): 109 % of control
T/C (dose: 18.7 mg/kg/injection, schedule: Q01DX009 (ip), vehicle: saline with Tween-80): 95 % of control
T/C (dose: 37.5 mg/kg/injection, schedule: Q01DX009 (ip), vehicle: saline with Tween-80): 100 % of control

CCN(CC)C(=O)Cn1ccc(NC(C)=O)nc1=O
T/C (dose: 100.0 mg/kg/injection, schedule: Q01DX009 (ip), vehicle: saline): 104 % of control
T/C (dose: 100.0 mg/kg/injection, schedule: Q04DX003 (ip), vehicle: saline): 95 % of control
T/C (dose: 200.0 mg/kg/injection, schedule: Q01DX009 (ip), vehicle: saline): 86 % of control
T/C (dose: 200.0 mg/kg/injection, schedule: Q04DX003 (ip), vehicle: saline): 100 % of control
T/C (dose: 400.0 mg/kg/injection, schedule: Q01DX009 (ip), vehicle: saline): 100 % of control
T/C (dose: 400.0 mg/kg/injection, schedule: Q04DX003 (ip), vehicle: saline): 100 % of control

CCOC(=O)c1c(N)sc2c1CCCCC2
T/C [6]: 100 % of control
T/C [7]: 95 % of control
T/C (dose: 400.0 mg/kg/injection, schedule: Q01DX009 (ip), vehicle: saline with Tween-80): 110 % of control

CCOC(=O)C1CC2(CCC1N)c1ccccc1-c1ccccc12 (stereo not drawn)
T/C [8]: 102 % of control
T/C [6]: 99 % of control
T/C [7]: 108 % of control

O=C(COc1ccc(Cl)cc1Cl)Oc1c(Cl)c(Cl)c(Cl)c(Cl)c1Cl
T/C (dose: 50.0 mg/kg/injection, schedule: Q04DX003 (ip), vehicle: saline with Tween-80): 91 % of control
T/C (dose: 100.0 mg/kg/injection, schedule: Q04DX003 (ip), vehicle: saline with Tween-80): 87 % of control

CC(=O)OC1(CSc2ccccc2)CCCCC1
T/C [8]: 93 % of control

CCOCc1cc([N+](=O)[O-])cc([N+](=O)[O-])c1O
T/C (dose: 12.5 mg/kg/injection, schedule: Q01DX009 (ip), vehicle: saline with Tween-80): 109 % of control
T/C (dose: 25.0 mg/kg/injection, schedule: Q01DX009 (ip), vehicle: saline with Tween-80): 113 % of control
